Assay results: patent US10011571B2, “Preparation method for aromatic heterocyclic compound used as selective JAK3 and/or JAK1 kinase inhibitor and application of aromatic heterocyclic compound” (SHENZHEN CHIPSCREEN BIOSCIENCES, LTD., priority 2014, dated 2018)

Legend:
JAK3 = JAK3 (Homo sapiens (Human), UniProt P52333); experiment: Z'-LYTE enzymatic activity detection, JAK3; type: biochemical; details: test compound 30 nM; for inhibition at 0.03 µM: read-out: JAK3 % inhibitory rate @30 nM
Description: (§1) The basic principle of in vitro enzymatic activity assay is based on the difference between the intensities of fluorescence signals generated at different wavelengths (445 nm and 520 nm) from the phosphorylated substrate and non-phosphorylated substrate, in which the specific fluorescence-labeled substrate is phosphorylated by the kinase. When different test compounds are added, the inhibition of kinase activity is represented as the different degrees of substrate phosphorylation, and thus as the different intensities of fluorescence signal, based on which the inhibitory activity of the compound on the kinase can be calculated. Basic detection principle is illustrated in FIG. 1.
(§2) In an enzymatic inhibitory activity detection, GST-labeled human recombinant JAK kinases, including JAK1/PV4774, JAK2/PV4210, JAK3/PV3855, TYK2/PV4790 and their corresponding specific substrates, including Tyr6 (Z′-LYTE® Kinase Assay Kit-Tyrosine 6 Peptide, JAK1/PV4122), Tyr4 (Z′-LYTE® Kinase Assay Kit-Tyrosine 4 Peptide, JAK2/PV3193), Tyr4 (Z′-LYTE® Kinase Assay Kit-Tyrosine 4 Peptide, JAK3/PV3193), Tyr3 (Z′-LYTE® Kinase Assay Kit-[…], TYK2/PV3192) are used. In all tests, development reagent A (PV3297) was used as the test agent. All materials mentioned above were purchased from Invitrogen.
(§3) (1) Preparation: kinase reaction buffer (working solution) is prepared according to the instruction; a concentration gradient of the test compound is prepared by dilution using the kinase reaction buffer (the highest compound concentration is 10 μM for JAK1, JAK2, and TYK2 detection, and 1 μM for JAK3 detection, respectively).
(§4) (2) 10 μl of reaction system, comprising 2.5 μL test compound, 5 μL kinase reaction buffer and 2.5 μL ATP solution (provided by the kit), is mixed and reaction is performed at room temperature for 1 h.
(§5) (3) Controls, including a solvent control without the test compound, a negative control without ATP and a positive control with the phosphorylated substrate, are tested together with the detection. All tests are carried out in triplicate.
(§6) (4) After the enzymatic reaction, 5 μL pre-formulated development buffer is added, and reaction is performed at room temperature for 1 h. Subsequently, the reaction is terminated by adding 5 μL stop buffer.
(§7) (5) The fluorescence signal in each well is detected by an Ascent Fluoroskan FL reader (Thermo Labsystems) at an excitation wavelength of 400 nm, and emission wavelengths of 445 nm and 520 nm. The proportion of substrate phosphorylation is obtained by reference to the fluorescence signal intensity C445/F520.
(§8) (6) The enzymatic inhibitory rate of the test compound can be calculated based on the following equation: Inhibitory rate (%)=1−the proportion of substrate phosphorylation in the detection well/the proportion of substrate phosphorylation in the solvent control well. The half-inhibitory concentration (IC50) can be calculated using an IC50 calculator based on the inhibitory rates of phosphorylation for the test compounds at different concentration gradients.
(§9) Based on the above method, the compounds described herein are enzymatically evaluated in vitro for JAKs (the concentration of the test compound is 30 nM for JAK3 and JAK2 test, and 300 nM for JAK1 test) using Xeljanz (tofacitinib citrate) as the positive control.

CTLL-2 cells = experiment: Cell growth activity assay (MTS), CTLL-2 cell model; type: cell-based, mouse; details: 24 h; for activity at 0.3 µM: Mus musculus, CTLL-2, 300 nM, read-out: CTLL-2 % growth rate @300 nM
Source text: (§10) MTS assay is a routine method for cell toxicity detection. The basic principle is based on the capacity of dehydrogenase in the mitochondria of living cells to reduce a novel yellow […] MTS to formazan, so that the amount of living cells is proportional to the amount of formazan product by detecting the absorbance at 490 nm (OD), thereby speculating the amount of living cells according to the OD value, and understanding the capacity of the test compound to inhibit the growth of cells or to kill the cells.
In this experiment, mouse T-cell line CTLL-2 was used. The proliferation and growth of this cell line strongly depend on IL-2, and it is commonly used to evaluate the active titer of exogenous IL-2. By inhibiting the activity of kinase JAK1/3, the proliferation of CTLL-2 can be inhibited under in vitro culture. The activation and proliferation of T-cell is also important pathological characteristics for various immunological diseases. Thus, this model is also pathologically related.
By comparing the change of absorbance generated by the cells treated by the test compounds using MTS assay, the growth inhibitory activity of the test compounds on the model cells can be realized, and thereby potential inhibitory activity of the compounds on JAK1/3 pathway can be evaluated.
(§11) MTS is performed according to routine procedure in a 96-well plate.
(§12) The model cells are inoculated into each well of the 96-well plate at an appropriate concentration (about 20,000 cells/well). After 24 h, the test compounds are added at different concentration gradients (the highest concentration of 10 μM). A solvent control (DMSO) and a negative control are also performed at the same time. Each experiment is repeated for 3 times. The cells are detected after cultured for another 24 h.
CTLL-2 is a suspended cell. After incubation, 20 μL pre-formulated mixture of MTS and PMS (in a ratio of 20:1) is directly added to each well. After incubation at 37° C. for 2 h, it is then detected by a microplate reader (490 nm).
The effect of the test compound on cell growth is calculated by comparing the change of OD values between the test well and the solvent control well, after subtracting the background of the negative control. For the test compounds at different concentration gradients, the inhibitory rates on the growth of model cells and their half-growth inhibitory concentrations (GI50) are each calculated.
Based on the above method, cytological evaluation is performed to the compounds described herein (for the detection of CTLL-2 cell, the concentration of the test compound is 300 nM; for the detection of HeLa and HUVEC cell, the concentration of the test compound is […]).

JAK2 = JAK2 (Homo sapiens (Human), UniProt O60674); experiment: Z'-LYTE enzymatic activity detection, JAK2; type: biochemical; details: test compound 30 nM; for inhibition at 0.03 µM: read-out: JAK2 % inhibitory rate @30 nM
Chain of JAK2 (O60674 whole entry): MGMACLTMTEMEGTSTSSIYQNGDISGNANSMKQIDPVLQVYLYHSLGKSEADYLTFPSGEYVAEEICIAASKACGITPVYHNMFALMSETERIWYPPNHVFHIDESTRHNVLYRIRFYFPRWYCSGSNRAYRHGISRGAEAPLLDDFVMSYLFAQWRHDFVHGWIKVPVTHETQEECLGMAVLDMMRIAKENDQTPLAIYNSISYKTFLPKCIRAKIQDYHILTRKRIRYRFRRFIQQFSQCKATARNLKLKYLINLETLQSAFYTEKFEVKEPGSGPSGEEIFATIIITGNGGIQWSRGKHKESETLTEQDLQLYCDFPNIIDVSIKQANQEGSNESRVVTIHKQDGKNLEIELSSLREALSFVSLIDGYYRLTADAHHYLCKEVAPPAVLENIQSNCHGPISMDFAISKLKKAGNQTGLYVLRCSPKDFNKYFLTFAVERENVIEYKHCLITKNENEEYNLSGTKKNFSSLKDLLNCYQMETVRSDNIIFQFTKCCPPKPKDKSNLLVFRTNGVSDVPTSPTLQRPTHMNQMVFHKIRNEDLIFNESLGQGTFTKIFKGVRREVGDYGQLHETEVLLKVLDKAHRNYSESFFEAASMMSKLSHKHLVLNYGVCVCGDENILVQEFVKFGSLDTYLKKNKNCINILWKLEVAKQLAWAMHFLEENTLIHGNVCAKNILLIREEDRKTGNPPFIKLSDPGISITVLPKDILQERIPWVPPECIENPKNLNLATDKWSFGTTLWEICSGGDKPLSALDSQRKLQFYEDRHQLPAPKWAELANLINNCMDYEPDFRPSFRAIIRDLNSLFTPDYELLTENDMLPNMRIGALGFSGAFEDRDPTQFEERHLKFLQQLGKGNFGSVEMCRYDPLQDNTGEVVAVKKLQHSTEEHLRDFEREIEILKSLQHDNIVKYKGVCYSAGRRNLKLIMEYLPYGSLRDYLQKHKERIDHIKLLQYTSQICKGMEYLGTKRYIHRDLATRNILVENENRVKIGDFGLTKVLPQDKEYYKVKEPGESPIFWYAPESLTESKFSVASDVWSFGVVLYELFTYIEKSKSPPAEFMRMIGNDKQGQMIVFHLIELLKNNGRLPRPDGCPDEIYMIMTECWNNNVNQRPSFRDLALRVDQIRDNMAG
Description: as §1, §2, §3, §4, §5, §6, §7, §8, §9

HeLa cells = experiment: Cell growth activity assay (MTS), HeLa cell model; type: cell-based, human; design: activity: dose or concentration left out as unconfirmed; details: 72 h; for activity: Homo sapiens, HeLa, read-out: HeLa % growth rate
Source text: as §10
HeLa cell is a human cervical cancer cell line, and belongs to epithelial tumor cell line; HUVEC is a human umbilical vein endothelial cell, and belongs to primary endothelial cell; both types of cells express all subtypes except for JAK3.
The change of JAK kinase activity has no significant influence on other cell types except for the immune cells, and both cell models mentioned above are mainly used to evaluate whether there are any other kinase targets besides JAK kinases or there are nonselective cell toxicities.
In this experiment, a cultured cell model is incubated with the test compounds at different concentrations for a specific duration. The effect of the treatment by the test compound on the growth of cells is detected using MTS assay.
as §11
as §12, with “(about 5000” for “(about 20,000”, “highest final” for “highest”, “concentration is 40” for “concentration of 10”, “another 72” for “another 24”
After all culture medium is aspirated out of the well, 100 μL fresh medium and 20 μL pre-formulated mixture of MTS and PMS (in a ratio of 20:1) are added to each well. After incubation at 37° C. for 2 h, it is then detected by a microplate reader (490 nm).
The cell growth inhibitory rate and GI50 of the test compound are calculated as above.
Based on the above method, cytological evaluation is performed to the compounds described herein (for the detection of CTLL-2 cell, the concentration of the test compound is 300 nM; […]).

JAK1 = JAK1 (Homo sapiens (Human), UniProt P23458); experiment: Z'-LYTE enzymatic activity detection, JAK1; type: biochemical; details: test compound 300 nM; for inhibition at 0.3 µM: read-out: JAK1 % inhibitory rate @300 nM
Chain of JAK1 (P23458 whole entry): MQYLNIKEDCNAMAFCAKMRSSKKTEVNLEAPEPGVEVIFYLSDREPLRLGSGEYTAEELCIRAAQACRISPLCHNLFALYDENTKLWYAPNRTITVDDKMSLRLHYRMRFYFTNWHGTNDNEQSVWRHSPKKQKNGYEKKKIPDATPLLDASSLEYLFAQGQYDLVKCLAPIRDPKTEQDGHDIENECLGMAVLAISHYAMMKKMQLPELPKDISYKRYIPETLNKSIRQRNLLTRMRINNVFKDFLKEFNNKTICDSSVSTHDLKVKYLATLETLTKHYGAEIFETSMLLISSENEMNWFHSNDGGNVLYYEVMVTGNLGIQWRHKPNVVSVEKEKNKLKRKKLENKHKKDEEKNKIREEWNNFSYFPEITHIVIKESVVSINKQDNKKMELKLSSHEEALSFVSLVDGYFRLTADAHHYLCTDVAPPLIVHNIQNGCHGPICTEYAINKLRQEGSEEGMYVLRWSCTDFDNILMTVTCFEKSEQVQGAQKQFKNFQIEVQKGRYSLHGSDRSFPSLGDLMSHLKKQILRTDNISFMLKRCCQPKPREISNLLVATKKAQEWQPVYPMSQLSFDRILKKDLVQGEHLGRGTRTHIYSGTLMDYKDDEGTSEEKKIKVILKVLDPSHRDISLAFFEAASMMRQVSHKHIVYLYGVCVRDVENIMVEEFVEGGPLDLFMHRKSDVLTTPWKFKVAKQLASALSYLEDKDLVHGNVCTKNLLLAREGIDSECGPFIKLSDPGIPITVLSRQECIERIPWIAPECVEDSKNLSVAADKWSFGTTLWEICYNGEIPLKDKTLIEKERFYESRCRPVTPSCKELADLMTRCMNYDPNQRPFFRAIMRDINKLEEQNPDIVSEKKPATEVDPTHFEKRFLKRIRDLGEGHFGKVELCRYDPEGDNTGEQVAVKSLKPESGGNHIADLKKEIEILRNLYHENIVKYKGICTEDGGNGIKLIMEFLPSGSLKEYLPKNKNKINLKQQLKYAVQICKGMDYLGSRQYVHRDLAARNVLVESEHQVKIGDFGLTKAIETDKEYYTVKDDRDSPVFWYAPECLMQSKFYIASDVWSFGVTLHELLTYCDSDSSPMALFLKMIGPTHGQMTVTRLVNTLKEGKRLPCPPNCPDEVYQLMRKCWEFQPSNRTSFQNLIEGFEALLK
Description: as §1, §2, §3, §4, §5, §6, §7, §8, §9

Chain of JAK3 (P52333 whole entry): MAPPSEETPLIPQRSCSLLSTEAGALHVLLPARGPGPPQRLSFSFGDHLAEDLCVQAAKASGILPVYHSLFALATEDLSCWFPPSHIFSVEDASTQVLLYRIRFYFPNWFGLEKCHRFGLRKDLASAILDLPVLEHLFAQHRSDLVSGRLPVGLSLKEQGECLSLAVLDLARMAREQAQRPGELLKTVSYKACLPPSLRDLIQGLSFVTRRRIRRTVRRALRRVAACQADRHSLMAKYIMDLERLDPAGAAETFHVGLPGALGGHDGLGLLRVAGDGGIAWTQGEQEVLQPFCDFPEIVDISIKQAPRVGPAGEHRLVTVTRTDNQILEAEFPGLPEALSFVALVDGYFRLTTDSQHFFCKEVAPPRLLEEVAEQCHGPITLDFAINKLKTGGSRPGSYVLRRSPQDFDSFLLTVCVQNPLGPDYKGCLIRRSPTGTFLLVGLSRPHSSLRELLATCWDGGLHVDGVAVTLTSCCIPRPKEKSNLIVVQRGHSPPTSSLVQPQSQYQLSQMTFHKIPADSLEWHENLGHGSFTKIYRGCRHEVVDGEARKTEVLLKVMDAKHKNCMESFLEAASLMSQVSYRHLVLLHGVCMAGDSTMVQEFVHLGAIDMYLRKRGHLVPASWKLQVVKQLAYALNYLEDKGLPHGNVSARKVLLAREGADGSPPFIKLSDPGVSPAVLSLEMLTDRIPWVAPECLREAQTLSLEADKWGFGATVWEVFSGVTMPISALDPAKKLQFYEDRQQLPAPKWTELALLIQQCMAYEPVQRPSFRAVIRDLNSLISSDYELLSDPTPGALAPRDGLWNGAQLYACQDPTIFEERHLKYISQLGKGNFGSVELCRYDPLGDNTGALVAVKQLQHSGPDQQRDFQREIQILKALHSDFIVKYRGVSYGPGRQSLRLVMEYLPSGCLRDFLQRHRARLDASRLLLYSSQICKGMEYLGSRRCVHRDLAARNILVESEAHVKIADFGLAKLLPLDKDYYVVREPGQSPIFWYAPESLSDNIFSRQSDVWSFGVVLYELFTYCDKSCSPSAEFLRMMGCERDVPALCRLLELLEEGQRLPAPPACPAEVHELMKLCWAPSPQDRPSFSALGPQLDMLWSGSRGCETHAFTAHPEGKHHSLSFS

Structure (SMILES)	JAK3 RV (ratio between the inhibitory rate of the test compound and that of Xeljanz) (JAK3)	inhibition at 0.03 µM (JAK3)	activity at 0.3 µM (CTLL-2 cells)	inhibition at 0.03 µM (JAK2)	activity (HeLa cells)	JAK1 RV (ratio between the inhibitory rate of the test compound and that of Xeljanz) (JAK1)	inhibition at 0.3 µM (JAK1)	JAK3 % inhibitory rate @30 nM (JAK3)	CTLL-2 % growth rate @300 nM (CTLL-2 cells; 300 nM)	JAK2 % inhibitory rate @30 nM (JAK2)	HeLa % growth rate @10 μM (HeLa cells)	JAK1 % inhibitory rate @300 nM (JAK1)
C=CC(=O)N(C)c1cc(Nc2ncc(Cl)c(NCCCNC(=O)c3cccc(C#N)c3)n2)ccc1F [Example 95, N-(3-(5-chloro-2-(4-fluoro-3-(N-methylacrylamido)phenylamino)pyrimidinyl-4-amino)propyl)-3-cyanobenzamide]	1.01	84%	3%	0%	3%	0.53	45%	–	–	–	–	–
C=CC(=O)N(C)c1cc(Nc2ncc(Cl)c(NCCCNC(=O)c3ccc(C(F)(F)F)c(F)c3)n2)ccc1F [Example 103, N-(3-(5-chloro-2-(4-fluoro-3-(N-methylacrylamido)phenylamino)pyrimidinyl-4-amino)propyl)-3-fluoro-4-trifluoromethylbenzamide]	1.04	86%	3%	0%	55%	0.87	74%	–	–	–	–	–
C=CC(=O)N(C)c1cc(Nc2ncc(Cl)c(NCCCNC(=O)c3cc(F)c(F)c(F)c3F)n2)ccc1F [Example 107, N-(3-(5-chloro-2-(4-fluoro-3-(N-methylacrylamido)phenylamino)pyrimidinyl-4-amino)propyl)-2,3,4,5-tetrafluorobenzamide]	1.01	84%	2%	0%	59%	0.79	67%	–	–	–	–	–
C=CC(=O)N(C)c1cc(Nc2ncc(Cl)c(NCCCNC(=O)c3ccc(C(C)=O)cc3)n2)ccc1F [Example 111, 4-acetyl-N-(3-(5-chloro-2-(4-fluoro-3-(N-methylacrylamido)phenylamino)pyrimidinyl-4-amino)propyl)benzamide]	0.99	82%	3%	0%	67%	0.19	16%	–	–	–	–	–
C=CC(=O)N(C)c1cc(Nc2ncc(Cl)c(NCCCNC(=O)c3ccc(C(F)F)cc3)n2)ccc1F [Example 115, N-(3-(5-chloro-2-(4-fluoro-3-(N-methylacrylamido)phenylamino)pyrimidinyl-4-amino)propyl)-4-difluoromethylbenzamide]	0.98	81%	3%	0%	71%	0.49	42%	–	–	–	–	–
C=CC(=O)N(C)c1cc(Nc2ncc(Cl)c(NCCCCCCNC(=O)c3ccc(C#N)cc3)n2)ccc1F [Example 123, N-(6-(5-chloro-2-(4-fluoro-3-(N-methylacrylamido)phenylamino)pyrimidinyl-4-amino)hexyl)-4-cyanobenzamide]	0.95	–	–	–	–	–	–	79%	5%	0%	5%	0%
